# According to patent US20240116985A1, “STAPLED PEPTIDES AND METHODS THEREOF” (priority 2020, published 2024):
# Read-outs that look alike come from different tables or passages of the source.
# How the values were obtained:
# [1] = target: T1, full-length beta-Catenin (Uniprot ID P35222) (Homo sapiens, UniProt P35222); test: Fluorescence polarization IC50 (beta-catenin / 5FAM-TCF4 10-53 competition); format: binding; details: fluorescence polarization; read-out: beta-Catenin FP IC50
# T1 construct: 10 nM full-length beta-Catenin (Uniprot ID P35222)
# T1 sequence (P35222 1-781): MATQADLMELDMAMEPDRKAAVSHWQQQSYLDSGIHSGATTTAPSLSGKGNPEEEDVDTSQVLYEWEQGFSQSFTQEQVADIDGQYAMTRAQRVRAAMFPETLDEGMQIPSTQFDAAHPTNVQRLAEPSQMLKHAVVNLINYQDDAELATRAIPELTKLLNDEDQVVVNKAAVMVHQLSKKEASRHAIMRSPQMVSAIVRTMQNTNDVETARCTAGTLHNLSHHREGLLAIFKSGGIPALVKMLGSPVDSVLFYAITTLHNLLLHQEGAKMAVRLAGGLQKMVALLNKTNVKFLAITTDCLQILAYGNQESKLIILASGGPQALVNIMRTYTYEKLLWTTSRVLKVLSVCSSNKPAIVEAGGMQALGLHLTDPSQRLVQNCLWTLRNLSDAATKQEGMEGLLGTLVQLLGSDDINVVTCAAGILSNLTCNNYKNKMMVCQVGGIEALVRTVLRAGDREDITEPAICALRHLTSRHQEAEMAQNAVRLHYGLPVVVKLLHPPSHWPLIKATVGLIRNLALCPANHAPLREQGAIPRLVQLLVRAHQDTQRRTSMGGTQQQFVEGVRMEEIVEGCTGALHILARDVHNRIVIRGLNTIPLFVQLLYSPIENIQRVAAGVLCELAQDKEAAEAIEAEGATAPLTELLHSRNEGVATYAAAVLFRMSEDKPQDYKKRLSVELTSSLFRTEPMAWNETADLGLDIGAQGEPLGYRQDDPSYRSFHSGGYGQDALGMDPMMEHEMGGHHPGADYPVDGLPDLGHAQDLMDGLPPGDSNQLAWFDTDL
# Solubility in PBS = format: physicochemical
# In short: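 PBS sample ultracentrifuged; supernatant run on HPLC vs. 50 μM peptide in DMSO standard. Solubility = (PBS peak area / DMSO peak area) × 50 uM.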
Compound,IC50 [1] [µM],Solubility (Solubility in PBS) [µM],Solubility (Solubility in PBS; Solubility (uM)) [µM]
"CC(=O)N1CCC[C@]12CC=CCCCC1(CCCC=CCCCCCC[C@@](C)(C(=O)N[C@@H](Cc3ccsc3)C(=O)N[C@@H](Cc3csc4ccccc34)C(=O)N[C@H](C(N)=O)[C@@H](C)O)NC(=O)[C@H](CC(C)C)NC(=O)[C@H](Cc3ccccc3)NC(=O)[C@H](C)NC(=O)[C@H](C)NC(=O)[C@H](CC(=O)O)NC(=O)[C@H](CC(=O)O)NC1=O)NC(=O)[C@H](CC(C)(C)C)NC(=O)[C@H](CC(=O)O)NC2=O (stereo partly drawn) [I-1191, Ac-PL3-Asp-Npg-B5-Asp-Asp-Ala-Ala-Phe-Leu-S8-3Thi-BztA-Thr-NH2]",0.0385,10,–
"CC(=O)N1CCC[C@]12CC=CCCCC1(CCCC=CCCCCCC[C@@](C)(C(=O)N[C@@H](Cc3ccccc3Cl)C(=O)N[C@@H](Cc3csc4ccccc34)C(=O)N[C@@H](Cc3c[nH]nn3)C(N)=O)NC(=O)[C@H](CC(C)C)NC(=O)[C@H](Cc3ccccc3)NC(=O)[C@H](C)NC(=O)[C@H](C)NC(=O)[C@H](CC(=O)O)NC(=O)[C@H](CC(=O)O)NC1=O)NC(=O)[C@H](CC(C)(C)C)NC(=O)[C@H](CC(=O)O)NC2=O (stereo partly drawn) [I-1192, Ac-PL3-Asp-Npg-B5-Asp-Asp-Ala-Ala-Phe-Leu-S8-2C1F-BztA-4TriA-NH2]",0.0815,10,–
"CC(=O)N1CCC[C@]12CC=CCCCC1(CCCC=CCCCCCC[C@@](C)(C(=O)N[C@@H](Cc3ccsc3)C(=O)N[C@@H](Cc3csc4ccccc34)C(=O)N[C@@H](Cc3c[nH]nn3)C(N)=O)NC(=O)[C@H](CC(C)C)NC(=O)[C@H](Cc3ccccc3)NC(=O)[C@H](C)NC(=O)[C@H](C)NC(=O)[C@H](CC(=O)O)NC(=O)[C@H](CC(=O)O)NC1=O)NC(=O)[C@H](CC(C)(C)C)NC(=O)[C@H](CC(=O)O)NC2=O (stereo partly drawn) [I-1193, Ac-PL3-Asp-Npg-B5-Asp-Asp-Ala-Ala-Phe-Leu-S8-3Thi-BztA-4TriA-NH2]",0.0785,10,–
"CC(=O)N1CCC[C@]12CC=CCCCC1(CCCC=CCCCCCC[C@@](C)(C(=O)N[C@@H](Cc3ccccc3Cl)C(=O)N[C@@H](Cc3csc4ccccc34)C(=O)N[C@@H](Cc3c[nH]cn3)C(N)=O)NC(=O)[C@H](CC(C)C)NC(=O)[C@H](Cc3ccccc3)NC(=O)[C@H](C)NC(=O)[C@H](C)NC(=O)[C@H](CC(=O)O)NC(=O)[C@H](CC(=O)O)NC1=O)NC(=O)[C@H](CC(C)(C)C)NC(=O)[C@H](CC(=O)O)NC2=O (stereo partly drawn) [I-1194, Ac-PL3-Asp-Npg-B5-Asp-Asp-Ala-Ala-Phe-Leu-S8-2C1F-BztA-His-NH2]",0.0665,10,–
"CC(=O)N1CCC[C@]12CC=CCCCC1(CCCC=CCCCCCC[C@@](C)(C(=O)N[C@@H](Cc3ccccc3Cl)C(=O)N[C@@H](Cc3csc4ccccc34)C(=O)N[C@@H](CCO)C(N)=O)NC(=O)[C@H](CC(C)C)NC(=O)[C@H](Cc3ccccc3)NC(=O)[C@H](C)NC(=O)[C@H](C)NC(=O)[C@H](CC(=O)O)NC(=O)[C@H](CC(=O)O)NC1=O)NC(=O)[C@H](CC(C)(C)C)NC(=O)[C@H](CC(=O)O)NC2=O (stereo partly drawn) [I-1196, Ac-PL3-Asp-Npg-B5-Asp-Asp-Ala-Ala-Phe-Leu-S8-2C1F-BztA-Hse-NH2]",0.085,10,–
"CC(=O)N1CCC[C@]12CC=CCCCC1(CCCC=CCCCCCC[C@@](C)(C(=O)N[C@@H](Cc3ccsc3)C(=O)N[C@@H](Cc3csc4ccccc34)C(=O)N[C@@H](CCO)C(N)=O)NC(=O)[C@H](CC(C)C)NC(=O)[C@H](Cc3ccccc3)NC(=O)[C@H](C)NC(=O)[C@H](C)NC(=O)[C@H](CC(=O)O)NC(=O)[C@H](CC(=O)O)NC1=O)NC(=O)[C@H](CC(C)(C)C)NC(=O)[C@H](CC(=O)O)NC2=O (stereo partly drawn) [I-1197, Ac-PL3-Asp-Npg-B5-Asp-Asp-Ala-Ala-Phe-Leu-S8-3Thi-BztA-Hse-NH2]",0.044,10,–
"CC(=O)N1CCC[C@]12CC=CCCCC1(CCCC=CCCCCCC[C@@](C)(C(=O)N[C@@H](Cc3ccsc3)C(=O)N[C@@H](Cc3csc4ccccc34)C(=O)N[C@H](CCC(N)=O)C(N)=O)NC(=O)[C@H](CC(C)C)NC(=O)[C@H](Cc3ccccc3)NC(=O)[C@H](C)NC(=O)[C@H](C)NC(=O)[C@H](CC(=O)O)NC(=O)[C@H](CC(=O)O)NC1=O)NC(=O)[C@H](CC(C)(C)C)NC(=O)[C@H](CC(=O)O)NC2=O (stereo partly drawn) [I-1199, Ac-PL3-Asp-Npg-B5-Asp-Asp-Ala-Ala-Phe-Leu-S8-3Thi-BztA-dGln-NH2]",0.0445,–,19

# Continued by falling IC50 [1], values first:
IC50 [1] [µM],Solubility (Solubility in PBS) [µM],Solubility (Solubility in PBS; Solubility (uM)) [µM],Compound
0.987,50,–,"CC(=O)N1CCC[C@]12CC=CCCCC1(CCCC=CCCCOC(=O)N3CC[C@@](C(=O)N[C@@H](Cc4ccc(C#N)cc4)C(=O)N[C@@H](Cc4csc5ccccc45)C(=O)N[C@@H](CCC(N)=O)C(N)=O)(C3)NC(=O)[C@H](CC(C)C)NC(=O)[C@H](Cc3ccccc3)NC(=O)[C@H](C)NC(=O)[C@H](C)NC(=O)[C@H](CC(=O)O)NC(=O)[C@H](CC(=O)O)NC1=O)NC(=O)[C@H](CC(C)(C)C)NC(=O)[C@H](CC(=O)O)NC2=O (stereo partly drawn) [I-1205, Ac-PL3-Asp-Npg-B5-Asp-Asp-Ala-Ala-Phe-Leu-PyrS2-4CNF-BztA-Gln-NH2]"
0.349,–,44,"CC(=O)N1CCC[C@]12CC=CCCCC1(CCCC=CCCCOC(=O)N3CC[C@@](C(=O)N[C@@H](Cc4ccsc4)C(=O)N[C@@H](Cc4csc5ccccc45)C(=O)N[C@@H](CCC(N)=O)C(N)=O)(C3)NC(=O)[C@H](CC(N)=O)NC(=O)[C@H](Cc3ccccc3)NC(=O)[C@H](C)NC(=O)[C@H](C)NC(=O)[C@H](CC(=O)O)NC(=O)[C@H](CO)NC1=O)NC(=O)[C@H](CC(C)(C)C)NC(=O)[C@H](CC(=O)O)NC2=O (stereo partly drawn) [I-1208, Ac-PL3-Asp-Npg-B5-Ser-Asp-Ala-Ala-Phe-Asn-PyrS2-3Thi-BztA-Gln-NH2]"
0.081,50,–,"CC(=O)N1CCC[C@]12CC=CCCCC1(CCCC=CCCCOC(=O)N3CC[C@@](C(=O)N[C@@H](Cc4cccc(C#N)c4)C(=O)N[C@@H](Cc4csc5ccccc45)C(=O)N[C@@H](CCC(N)=O)C(N)=O)(C3)NC(=O)[C@H](CC(C)C)NC(=O)[C@H](Cc3ccccc3)NC(=O)[C@H](C)NC(=O)[C@H](C)NC(=O)[C@H](CC(=O)O)NC(=O)[C@H](CC(=O)O)NC1=O)NC(=O)[C@H](CC(C)(C)C)NC(=O)[C@H](CC(=O)O)NC2=O (stereo partly drawn) [I-1204, Ac-PL3-Asp-Npg-B5-Asp-Asp-Ala-Ala-Phe-Leu-PyrS2-3CNF-BztA-Gln-NH2]"
0.065,–,47,"CC(=O)N1CCC[C@]12CC=CCCCC1(CCCC=CCCCCCC[C@@](C)(C(=O)N[C@@H](Cc3ccccc3Cl)C(=O)N[C@@H](Cc3csc4ccccc34)C(=O)N[C@H](CCC(N)=O)C(N)=O)NC(=O)[C@H](CC(C)C)NC(=O)[C@H](Cc3ccccc3)NC(=O)[C@H](C)NC(=O)[C@H](C)NC(=O)[C@H](CC(=O)O)NC(=O)[C@H](CC(=O)O)NC1=O)NC(=O)[C@H](CC(C)(C)C)NC(=O)[C@H](CC(=O)O)NC2=O (stereo partly drawn) [I-1198, Ac-PL3-Asp-Npg-B5-Asp-Asp-Ala-Ala-Phe-Leu-S8-2C1F-BztA-dGln-NH2]"
0.0585,10,–,"CC(=O)N1CCC[C@]12CC=CCCCC1(CCCC=CCCCCCC[C@@](C)(C(=O)N[C@@H](Cc3ccsc3)C(=O)N[C@@H](Cc3csc4ccccc34)C(=O)N[C@@H](CO)C(N)=O)NC(=O)[C@H](CC(C)C)NC(=O)[C@H](Cc3ccccc3)NC(=O)[C@H](C)NC(=O)[C@H](C)NC(=O)[C@H](CC(=O)O)NC(=O)[C@H](CC(=O)O)NC1=O)NC(=O)[C@H](CC(C)(C)C)NC(=O)[C@H](CC(=O)O)NC2=O (stereo partly drawn) [I-1190, Ac-PL3-Asp-Npg-B5-Asp-Asp-Ala-Ala-Phe-Leu-S8-3Thi-BztA-Ser-NH2]"
